# Columns and labels:
# [1] = tested on: Fibrosarcoma cells (CCRC 60037) and sarcoma 180 cells; test: In vitro irradiation-induced cytotoxicity, MTT cell viability, tumor cells (cell type not specified for the result); assay type: cell-based
# Experimental: (§1) Two types of tumor cells were used in this study, and prepared as follows: Fibrosarcoma cells (CCRC 60037) and sarcoma 180 cells (obtained form Biochemical Institute of Chung Shan Medical and Dental College, Taiwan) were maintained and cultured in an α-modified eagle medium (MEM) containing L-glutamine and phenol red. It was supplemented with 10% fetal bovine serum and antibiotics (100 units/mL of penicillin G and 100 μg/mL streptomycin sulfate). The cells were incubated in the dark in 95% humidified air plus 5% CO2, and harvested by treatment with trypsin-EDTA. The harvested cells were suspended in an α-MEM medium at the concentration of 1×10^4 cells per mL.
# The cell suspension thus obtained was placed into wells of a 24-well plate (500 μL each) and pre-incubated at 37° C. for 24 hours. F10A16S solutions at various concentrations (0-10 μM) were then added to the wells (500 μL each). The wells were irradiated with fluorescence light (27 watts) for 0-60 minutes. The distance between the plate cover and the light source was set at 5-6 cm. After irradiation, the cells were further incubated for 48 hours. A solution of 3-(4,5-dimethylthiazol-2-yl)-2,5-diphenyl-tetrazolium bromide (MTT, 100 μL, 0.5% in PBS, 100 μL each) was then added to each of the wells to react with mitochrondrial dehydrogenase in the living cells to produce formazon. Each cell suspension was again incubated at 37° C. for 3 hours. The suspension medium was then discarded. Formazon formed in cells from each well was then extracted with DMSO (1.0 mL each). The DMSO extract solution was immediately used for optical measurement. The absorbance at 540 nm was correlated with the quantity of formazon, and thus with the quantity of dehydrogenase enzyme or the relative number of living cells (i.e., viability). […] With an irradiation time of 60 minutes, a sharp loss of viable cells was observed when F10A16S concentration was increased from 2.5 to 5.0 μM. A maximal photodynamic cytotoxicity efficacy of >90% was obtained at an F10A16S concentration of 5.0-10.0 μM and an irradiaion time of 60 minutes.
# [2] = tested on: Murine sarcoma 180 cells subcutaneous tumors; test: In vivo photodynamic therapy study in tumor-bearing mice; design: species or system male ICR mice; settings: 10 mg/kg intraperitoneal, 100 J/cm^2, day 30
# Experimental: A photodynamic therapy study was conducted in male ICR mice (Charles River Japan origin Crl: CD-1® (ICR)BR). The mice were 8 weeks old, weighted 37±0.8 g, housed in polycarbonated shoe-box cages on hardwood bedding (5 mice/cage) under controlled conditions (temperature 22±1° C., relative humidity 55±15%, and light/dark cycle 12/12 hours), and allowed free access to a laboratory rodent diet (#5K55, Purina Mills, Inc., St. Louis, Mo.) and water.
# Murine sarcoma 180 cells were maintained by transplantation to other mice in the abdominal cavity biweekly. Subcutaneous tumors were induced by […] injection of 1×10^7 tumor cells (about 0.1-0.15 ml ascitic fluid) to the subcutaneous region of abdominal cavities of the mice for this study, and were allowed to proliferate at the inoculation sites for 5-7 days until they reached a size with a diameter of 10±2 mm. […]
# After the treatment, the mouse was examined every 5 days for 30 days. Efficacy of the irradiation therapy was evaluated by measuring the body weights and tumor volumes of the mouse. At day 30, the mice were euthanatized by carbon dioxide asphyxiation, and the weights of the body, liver, kidney, spleen, heart, and tumor, were measured. […]
# [3] = tested on: Fibrosarcoma cells (CCRC 60037); test: In vitro irradiation-induced cytotoxicity, MTT cell viability, fibrosarcoma cells; assay type: cell-based; settings: fluorescence light irradiation time 60 minutes
# Experimental: as §1
# The cell suspension thus obtained was placed into wells of a 24-well plate (500 μL each) and pre-incubated at 37° C. for 24 hours. F10A16S solutions at various concentrations (0-10 μM) were then added to the wells (500 μL each). The wells were irradiated with fluorescence light (27 watts) for 0-60 minutes. The distance between the plate cover and the light source was set at 5-6 cm. After irradiation, the cells were further incubated for 48 hours. […] The absorbance at 540 nm was correlated with the quantity of formazon, and thus with the quantity of dehydrogenase enzyme or the relative number of living cells (i.e., viability). […]
# [4] = Water solubility noted for the isolated product; assay type: physicochemical
# Experimental: 200 mg F12A16 and 15.0 mL DMF were added to a dry flask containing a stirring bar and a condenser under N2. To the DMF solution were either sequentially added 1.0 mL DBU, 0.5 mL 1,4-butane sultone, and stirred at 100° C. for 12.0 hours or sequentially added 70 mg sodium hydride −30° C., stirred for 30 minutes, added 0.5 mL 1,4-butane sultone, and stirred at 60° C. for 6.0 hours. It was then quenched with 100 mL dilute HCl-acetone solution to effect precipitation of a solid. The solid was collected after centrifugation, washed twice with acetonitrile, and dissolved in 15 mL DMSO-H2O (1:5) in the presence of 100 mg Na2CO3. The DMSO-H2O solution was slowly added to acetone, resulting in precipitation of the product F12A16S. The product, in blue, was collected after centrifugation, washed with DMF and acetone, and then dried under vacuum at 40° C. to yield 210-230 mg water-soluble F12A16S.
# 80 mg F10A4 in 20 mL DMSO, and 60 mg sodium hydride were added into a dry flask equipped with a stirring bar and a condenser at ambient temperature under N2. The solution thus obtained was stirred for 30 minutes, followed by addition of 0.2 mL 1,4-butane sultone. The reaction mixture was slowly heated to 70° C. and stirred for 12.0 hours, and was quenched with 100 mL dilute HCl-acetonitrile solution to effect precipitation. […]
# [5] = tested on: ferricytochrome C; test: In vitro irradiation-induced superoxide generation (ferricytochrome C reduction, absorbance at 550 nm); settings: 25 μM F10A4S, fluorescence light 27 watts, irradiation time 0, 30, 60, 90 minutes
# Experimental: The solution thus obtained was added to each well of a 24-well plate, and exposed to fluorescence light source (27 watts) for 0-90 min. The distance between the plate cover and the light source was set at 5-6 cm. The extent of reduction of ferricytochrome C to ferrocytochrome C was evaluated by optical measurement. The increase of the absorbance at 550 nm corresponded to the increase of the quantity of ferrocytochrome C.
# In a separate experiment, the presence of superoxide radicals in the solution was confirmed by selective removal of superoxide radicals with superoxide dismutase (SOD, 75 or 150 units).
Substance,"cell viability with irradiation ([1]; 0-10 μM, irradiation 0-60 minutes)","maximal photodynamic cytotoxicity efficacy ([1]; 5.0-10.0 μM, irradiation time 60 minutes) [%]","cytotoxicity in the absence of light irradiation ([1]; no irradiation, highest concentration 10 μM)",tumor weight less than that of the tumor control group ([2]; laser irradiation at 514 nm),tumor weight less than that of the tumor control group ([2]; laser irradiation at 633 nm) [%],IC50 [3] [nM],solubility in water [4],production of superoxide radicals upon irradiation [5]
deca(hexadecaanilino)adduct [F10A16S],decrease in cell viability in both dose-dependent and irradiation time-dependent manners,> 90,no cystoxicity was observed,roughly 60%,~99,2900,,
sulfobutylated deca(tetraanilino)-pentakis(methano)-[60]fullerene decacarbamide [F10A4S],,,,,,,water-soluble,increase systematically in a time-dependent manner
sulfobutylated fullerene dodeca(hexadecaanilino)adduct [F12A16S],,,,,,,water-soluble,
